Reference: BindingDB's records for doi:10.1021/np970376z (Aoyama Gakuin University, 1998)

Biological target: Prothrombin (Homo sapiens, UniProt P00734)
Assay: Inhibition of thrombin

IC50 [µM]	Structure (SMILES)
> 136	C/C(=C\Cc1cc(O)ccc1O)CCC[C@@H](C)[C@@H](C[C@@H]1CCC[C@H]2C(C)(C)CCC[C@@]12C)OS(=O)(=O)O
47.7	CC1(C)CCC[C@H]2[C@H]1CC[C@@]1(C)[C@@H]2CC/C(=C\OS(=O)(=O)O)[C@@H]1CCc1ccoc1 [listing 1 of 2 here]
42.7	CC1(C)CCC[C@H]2[C@H]1CC[C@@]1(C)[C@@H]2CC/C(=C\OS(=O)(=O)O)[C@@H]1CCc1ccoc1 [listing 2 of 2 here]
